Assay [1] relates to actively replicating MRSA strain Mu50. The assay can be described thus: Killing kinetics, actively replicating cells (CFU plating). The settings on record: MHB, start 10^6 CFU/mL; PPs at 4× MIC, moxifloxacin 20 μM; detection limit 10^2 CFU/mL. Type of assay: cell-based, Staphylococcus aureus. Here is the method:
S. aureus cells were freshly incubated in MHB until an OD600 nm of approx. 0.6 was reached. Next, the cells were diluted to 10^6 CFU/mL in 5 mL MHB. […] At certain time points (0, 0.5, 1, 3, 6, 8, 24 h), 100 μL was removed from the culture, diluted and plated onto MHA plates. After 24-h incubation, colonies were counted and viability (expressed as colony-forming units per mL (CFU/mL)) was calculated considering the dilution factor.

The subject of assay [2] is stationary phase-induced persistent cells of MRSA strain Mu50. Put plainly: Persister killing kinetics (CFU plating). The format is cell-based, Staphylococcus aureus. The settings on record: start 10^8 CFU/mL. Here is the method: For persister killing kinetics, cells were grown overnight until a density of OD600 nm > 5.0 was reached and then washed three times with PBS. Next, cell density was adjusted to 10^8 CFU/mL in 5 mL PBS. […] Analysis was performed as described above.

For the next assay, the system named is pre-formed MRSA biofilms. The assay can be described thus: Biofilm viability by CFU plating. Type of assay: cell-based, Staphylococcus aureus. The conditions noted are these: 24 h of treatment, 4× minimal biofilm inhibitory concentration, moxifloxacin 20 μM. Here is the method:
Additionally, biofilm viability was quantified by CFU plating. Biofilms were pregrown as described above and treated for 24 h with 4× minimal biofilm inhibitory concentrations as calculated from the Resazurin reduction assay. Biofilms were dispersed by pipetting followed by sonification in a water bath. Dilutions were plated on Mueller-Hinton agar plates and incubated overnight at 37 °C.

Assay [3] has as its system Acinetobacter baumannii ATCC 747. The assay can be described thus: MIC determination (microbroth dilution). Type of assay: cell-based. The conditions noted are these: colistin alone. Here is the method: (§1) Cultures were, if not stated differently, incubated at 37 °C with aeration and shaking (150 rpm) in Mueller-Hinton broth (MHB). Bacteria were freshly incubated at the next morning from an overnight pre-culture for actively growing bacteria to an OD600 nm of approx. 0.6. To ensure persistent growth form, the bacteria were grown overnight until a density at OD600 nm > 5.0 was obtained. For biofilm growth, some colonies from a Mueller-Hinton agar (MHA) plate were picked and resuspended in MHB. Cell density has been adjusted to OD600 nm = 0.8, and cells were sown into a flat-bottom 96-well plate to be incubated statically at 37 °C with aeration. Studies were mainly performed with S. aureus Mu50.
(§2) The minimal inhibitory concentration (MIC) has been determined according to the CSLI guidelines (CLSI [2012]). Briefly, in a sterile polystyrene U-bottom 96-well plate, a 2-fold serial dilution ranging from 100 to 0.78 μM of testing compounds has been prepared in 50 μL MHB. A freshly inoculated S. aureus culture was grown until OD600 nm of approx. 0.6 and diluted to 10^6 CFU/mL in MHB. Finally, 50 μL of the latter cell suspension was added to each well and then incubated statically for 18–24 h at 37 °C. MIC was determined using BacTiterGlo ATP assay (Promega, Madison, WI, USA) and Tecan Infinite F200 Pro (Tecan, Männedorf, Switzerland). Moxifloxacin and DMSO were used as positive and negative control, respectively. Sublethal concentrations of colistin (0.1 μM) were used in some experiments to increase the permeability of the gram-negative cell envelope for compound testing. For E. cloacae, a broth microdilution assay was performed using a serial 2-fold dilution in 96-well flat-bottomed plates (Falcon, BD Bioscience, Heidelberg) of both PPs in broth LB medium (Roth, Karlsruhe) at a concentration range of 50–0.024 μM.
(In general: Dilution methods test growth across graded concentrations, often in twofold steps.)

Assay [4] has as its system Escherichia coli ATCC 25922. The assay can be described thus: MIC determination (microbroth dilution). The settings on record: colistin alone. The format is cell-based. Here is the method:
as §1, §2

For a further assay, the system named is gram-negative bacteria. Put plainly: MIC determination, summary over gram-negative strains. The format is cell-based. The conditions noted are these: colistin concentration of 0.1 μM (0.12 μg/mL). Here is the method: as §2

Values joined by “and” are separate entries in the source; they are usually repeats but may differ in a detail not shown here. Equal entries are not always repeated.

Turning to `COc1c(N2C[C@@H]3CCCN[C@@H]3C2)c(F)cc2c(=O)c(C(=O)O)cn(C3CC3)c12` [moxifloxacin, reference compound], in assay [1], the “time until viability reached the detection limit” value amounted to 3 h. Besides, the “decrease of viability of persistent cells after 24 h” value in assay [2] (3-bromo-PP at 4× MIC, moxifloxacin control, 24 h) is recorded as “did not show any effect”. The “reduction in viable cell counts in biofilms” value in the assay with pre-formed MRSA biofilms was “virtually no effect”.

Consider colistin [reference compound], for which the MIC – broadly, the lowest concentration found to suppress growth – in assay [3] was 0.78 μM and 0.90 μg/mL; in assay [4], 0.78 μM and 0.90 μg/mL. In addition, the “growth of gram-negative bacteria” value in the assay on gram-negative bacteria is reported as “not inhibited”.

Regarding `CCCCCCCCCCCCCCCCn1cc[n+](Cc2ccccc2)c1C.[I-]` [NH125, reference compound], the “time until viability reduced to the detection limit” value in assay [2] (PPs at 4× MIC, NH125 10 μM, detection limit 10^2 CFU/mL) is ~3 h.

These data come from paper PMC8217011, “Natural brominated phenoxyphenols kill persistent and biofilm-incorporated cells of MRSA and other pathogenic bacteria” (Applied Microbiology and Biotechnology, 2020).
